Where two headings read alike, the source gives them in different places.
How the values were obtained:
[1] = test system: bloodstream form of T. brucei; design: method as in number not given; conditions: footnote c 'From ref', ref number not given; cited from earlier work
[2] = test system: F10T (hairpin duplex DNA); format: binding; conditions: oligonucleotide 200 nM
[3] = test system: FEbr1T (T. brucei G-quadruplex); assay: FRET melting assay, FEbr1T; format: binding; conditions: oligonucleotide 200 nM
MRC-5 cells [4] = test system: MRC-5 cells; design: method as in number not given; conditions: footnote c 'From ref', ref number not given; cited from earlier work
[5] = test system: F21T K+ (human telomeric G-quadruplex, potassium buffer); format: binding; conditions: oligonucleotide 200 nM
[6] = test system: FMycT (c-Myc promoter G4); assay: FRET melting assay, FMycT; format: binding; conditions: oligonucleotide 200 nM
[7] = test system: promastigote form of L. major; design: method as in number not given; conditions: promastigotes; footnote c 'From ref', ref number not given; cited from earlier work
[8] = test system: F21T Na+ (human telomeric G-quadruplex, sodium buffer); format: binding; conditions: oligonucleotide 200 nM
[9] = test system: Fmt6363T (human mitochondrial G-quadruplex); assay: FRET melting assay, Fmt6363T; format: binding; conditions: oligonucleotide 200 nM
BSF T. brucei parasites = assay: CellTiter-Glo luminescent cell viability assay; format: cell-based; conditions: Trypanosoma brucei, 72 h, read-out: IC50 T. brucei (CellTiter-Glo)
Protocol: Ten μL portion of Cell Titer Glo was then added to every well, and after 10 min of incubation at room temperature, the luminescence of the plates was recorded using the Infinite F200 plate reader (TECAN Austria, GmbH). […] Presented data are the mean value of three independent measurements, all of them conducted under triplicate conditions.

[10] = test system: promastigote form of L. major; assay: MTT-based antileishmanial assay, promastigotes; format: cell-based, Leishmania major; conditions: Leishmania major; promastigotes, 72 h, MTT; error as σ
Protocol: The antileishmanial activity of the compounds against the promastigote form of L. major, the […] was determined using an MTT-based assay (Sigma-Aldrich). Stock solutions of the compounds were prepared in DMSO with the final DMSO percentage in each well maintained below 1%. 4 × 10^6 parasites per mL were incubated at 28 °C in 96-well plates (50 μL/well) either alone or in the presence of increasing concentrations of compounds DMSO for 72 h. After the incubation period, 10 μL of MTT (5 mg/mL) was added to each well, and the parasites were incubated for 4 h at 28 °C. Subsequently, cell lysis was performed using 50 μL/well of 20% SDS. […] Data were presented as the average of at least three independent measurements, each conducted under triplicate conditions. […] “single marker” […] S7

[11] = test system: F10T (DNA, hairpin, hexaethylene glycol (HEG, [(-CH2CH2O-)6]) linker between 10 and 11) TATAGCTATATATAGCTATA; assay: FRET melting; conditions: K+ (10 mM KCl), 90 mM LiCl; 10 mM Li cacodylate; compound 10 µM, DNA 200 nM
[12] = test system: Fmt6363T (DNA, G4) AGGGACGCGGGCGGGGGATATAGGGT; assay: FRET melting; conditions: K+ (10 mM KCl), 90 mM LiCl; 10 mM Li cacodylate; compound 10 µM, DNA 200 nM
[13] = test system: F21T (DNA, G4) GGGTTAGGGTTAGGGTTAGGG; assay: FRET melting; conditions: K+ (10 mM KCl), 90 mM LiCl; 10 mM Li cacodylate; compound 10 µM, DNA 200 nM
[14] = test system: FEbr1T (DNA, G4) GGGCAGGGGGTGATGGGGAGGAGCCAGGG; assay: FRET melting; conditions: K+ (10 mM KCl), 90 mM LiCl; 10 mM Li cacodylate; compound 10 µM, DNA 200 nM
other G4 sequences = assay: FRET melting assay, other examined G4s; format: binding; conditions: ligand 10 μM; range over the remaining G4s
Protocol: The stabilization of G4 structures was initially evaluated by using the Förster resonance energy transfer (FRET) melting assay. This analysis evaluated the binding of the compounds against four G4-forming oligonucleotides and a hairpin duplex sequence to determine both G4:duplex and G4:G4 selectivity.
FRET melting assays were performed to assess ligand affinity for duplex and G-quadruplex DNA.
proximity of the donor and quencher result in no observed fluorescence from FAM, since energy
is transferred non-radiatively to TAMRA by FRET. As the temperature is raised and the secondary
structure denatures, the fluorophores move further apart and the fluorescence signal increases.
From the resulting curve, the characteristic melting temperature (Tmax, also referred to as Tm) is
defined as the temperature which corresponds to the maxima of the first derivative of the
normalised fluorescence signal. The change in melting temperature (ΔTm) induced by the presence
of a small molecule ligand provides an indication of the ligand’s ability to stabilise the DNA
co-workers 12 on an AriaMx qPCR instrument.
min, before heating at 1 °C/min to 96 °C in 1 °C increments, followed by monitoring the
fluorescence output at each increment for 1 min. The fluorescence emission of FAM was followed
The final concentration of oligonucleotide was 200 nM in all cases. For F21T in Na+ conditions, […]

[15] = test system: bloodstream form of T. brucei; assay: alamarBlue (resazurin) antitrypanosomal assay; format: cell-based, Trypanosoma brucei; conditions: Trypanosoma brucei; bloodstream form, 72 h, alamarBlue/resazurin; error as σ
MRC-5 cells [16] = assay: alamarBlue cytotoxicity assay, MRC-5; format: cell-based; conditions: MRC5, human lung fibroblasts, 72 h
[17] = test system: telo23 (DNA, G4) TAGGGTTAGGGTTAGGGTTAGGG; assay: CD titration; conditions: K+ (100 mM potassium phosphate); pH 7.4, 20 °C, DNA 5 µM
[18] = test system: Ebr1 (DNA, G4) GGGCAGGGGGTGATGGGGAGGAGCCAGGG; assay: CD titration; conditions: K+ (100 mM potassium phosphate); pH 7.4, 20 °C, DNA 5 µM
[19] = test system: mt6363 (DNA, G4) AGGGACGCGGGCGGGGGATATAGGGT; assay: CD titration; conditions: K+ (100 mM potassium phosphate); pH 7.4, 20 °C, DNA 5 µM
mt6363 G4 = assay: UV-vis absorbance titration; format: binding, human; conditions: ligand 10 μM, 100 mM potassium phosphate, pH 7.4; numbers only in Figure 6
Protocol: Furthermore, the analysis confirmed its selectivity for G4 structures over duplex DNA.
6 (A) Equilibrium binding constants calculated for compounds 2b and 2c with several G-quadruplexes (telo23, Ebr1, and mt6363) and a duplex DNA (ds26) sequence. (B) UV–vis titration of 2b with telo23, mt6363, Ebr1, and ds26. Buffer = 100 mM potassium phosphate, pH 7.4. Ligand concentration: 10 μM. […]
oligonucleotides were at a concentration of 5 µM in potassium phosphate buffer (100 mM, pH 7.4). Data processing was carried out using Python and Prism 10 (GraphPad Software) with a 4-point second order smoothing polynomial applied to all spectra. Observed ellipticities were converted to molar ellipticity.
Absorbance spectra were recorded on a Cary 60 UV-Visible spectrophotometer using a room-light immune fibre optic probe with 10 mm path length. The UV-Vis spectra were recorded between 700 – 300 nm and were corrected for background and buffer absorbance.
In the titrations, the concentration of ligand was fixed at 10 µM in an initial volume of 500 µL in potassium phosphate buffer (100 mM, pH 7.4). […]
Table S1. Synthesis and photophysical data in acetonitrile solution (absorption, λabs, fluorescence emission maxima, λfluo, molar absorptivity, Ɛ and fluorescence quantum yield, ɸF) for the 2-ethenyl-benzothiazolium derivatives 2a-j. […]

HeLa cells = assay: alamarBlue antiproliferative assay, HeLa; format: cell-based, human; conditions: Homo sapiens, HeLa; 72 h, alamarBlue
HT-29 cells = assay: alamarBlue antiproliferative assay, HT-29; format: cell-based, human; conditions: Homo sapiens, HT-29; 72 h, alamarBlue
[20] = test system: intracellular amastigote form of L. major; assay: Luciferase assay, intracellular amastigotes in THP-1 macrophages; format: cell-based, Leishmania major; conditions: Leishmania major
Protocol: The antileishmanial activity of the compounds against the intracellular form of L. major was evaluated using the Luciferase Assay System kit from Promega. THP-1 cells were seeded at a density of 3 × 10^5 cells/mL in 96-well plates (100 μL/well) and treated with 20 ng/mL PMA (phorbol 12-myristate 13-acetate, Sigma) for 48 h to induce differentiation. Postdifferentiation, the cells were washed, and fresh medium was added (100 μL/well) before being reincubated. Following an additional 24 h, the wells were washed, and 50 μL of L. major parasites at a density of 1.5 × 10^6 parasites/mL (suspended in RPMI-1640 medium 5% hiFBS and 5% penicillin/streptomycin) were added to the wells. The plates were then incubated at 35 °C in 5% CO2. After 24 h, the wells were washed three times with PBS, and fresh medium with increasing concentrations of compounds was added (100 μL/well). After another 72 h of incubation, the cells were then treated with 25 μL of lysis buffer and stored at −80 °C. Following 24 h, 25 μL of luciferase enzyme substrate was added to each well, and the luciferase activity of the amastigotes was determined using a TECAN Infinite F200 microplate reader. […] Data were presented as the average of at least three independent measurements, each conducted under triplicate conditions.
Parasite and cell culturing […]
Leishmania major (MHOM/IL/80/Friedlin) promastigotes and its derivative luminescent strain L. major LucRE9 with the luciferase gene integrated into the parasite genome (LUC) were cultured at 28 °C, 5 % CO2 in modified RPMI-1640 medium (Invitrogen, Carlsbad, CA) supplemented with 10 % hiFBS6, including […] blasticidin in the LucRE9 strain. 7 Parasites were maintained in culture in their […] growth phase (below 2 million T. brucei parasites per mL, ,10 million L. major parasites per mL for promastigotes experiments), and in the stationary phase , 20 million L. major parasites per mL for THP -1 infection experiments.
MRC-5 cell line (human lung fibroblast) was grown in monolayer at 37 °C, 5 % CO2 in DMEM medium (1 g/L glucose) supplemented with 10% hiFBS, 100 U/mL penicillin, […] streptomycin and 2 mM L-glutamine.8
THP-1 cells (human monocytic cell line) were maintained in RPMI-1640 medium supplemented with 10% heat-inactivated fetal bovine serum (hiFBS) and 5 % penicillin/streptomycin (37 °C, 5 % CO2, and 100 % humidity). […]

THP-1 cells = assay: alamarBlue cytotoxicity assay, PMA-differentiated THP-1; format: cell-based, human; conditions: Homo sapiens, PMA-differentiated THP-1, 72 h

C[n+]1ccc(-c2c3nc(c(-c4cc[n+](C)cc4)c4ccc([nH]4)c(-c4cc[n+](C)cc4)c4ccc([nH]4)c(-c4cc[n+](C)cc4)c4nc2C=C4)C=C3)cc1 [TMPyP4, reference compound]
IC50 [1]: > 10000 nM | ΔTm F10T ([2]; positive control at 1 μM): 1.7 ± 0.1 °C | ΔTm FEbr1T ([3]; positive control at 1 μM): 12.4 ± 0.9 °C | IC50 (MRC-5 cells [4]): > 25000 nM | ΔTm F21T K+ ([5]; positive control at 1 μM): 16.4 ± 0.4 °C | ΔTm FMycT ([6]; positive control at 1 μM): 12.6 ± 1.1 °C | IC50 [7]: 20800 ± 4860 nM | ΔTm F21T Na+ ([8]; positive control at 1 μM): 10.4 ± 0.4 °C | ΔTm Fmt6363T ([9]; positive control at 1 μM): 7.1 ± 0.4 °C

Cc1ccc2c(c1)sc(-c1ccc(N(C)C)cc1)[n+]2C [ThT, Thioflavin T, reference compound]
IC50 (BSF T. brucei parasites; BSF parasites, luminescence): 62 ± 3 nM | IC50 [10]: 23 ± 0.2 nM | ΔTm F10T ([2]; ligand 10 μM, 10 mM KCl): 0.1 ± 0.1 °C | ΔTm FEbr1T ([3]; ligand 10 μM, 10 mM KCl): 4.5 ± 0.7 °C | ΔTm [11]: 0.1 ± 0.1 °C | ΔTm F21T K+ ([5]; ligand 10 μM, 10 mM KCl): 5.5 ± 0.2 °C | ΔTm [12]: 2.9 ± 0.4 °C | ΔTm [13]: 5.5 ± 0.2 °C | ΔTm FMycT ([6]; ligand 10 μM, 1 mM KCl): 15.0 °C | ΔTm [14]: 4.5 ± 0.7 °C | ΔTm for the other examined G4 sequences (other G4 sequences): 1.4–5.5 °C | IC50 [15]: 4.7 ± 0.3 nM | ΔTm F21T Na+ ([8]; ligand 10 μM, 100 mM NaCl): 1.4 ± 0.2 °C | IC50 (MRC-5 cells [16]): 183 ± 38 nM | ΔTm Fmt6363T ([9]; ligand 10 μM, 10 mM KCl): 2.9 ± 0.4 °C

CN(C)c1ccc(/C=C/c2sc3ccccc3[n+]2C)cc1.[I-] [compound 2b]
binding [17]: yes | binding [18]: yes | IC50 (BSF T. brucei parasites): 0.55 ± 0.23 nM | binding [19]: yes | ΔTm F10T ([2]; ligand 10 μM, 10 mM KCl): 2.3 ± 0.2 °C | ΔTm FEbr1T ([3]; ligand 10 μM, 10 mM KCl): 13.1 °C | ΔTm [11]: 2.3 ± 0.2 °C | ΔTm F21T K+ ([5]; ligand 10 μM, 10 mM KCl): 13.1 ± 0.5 °C | ΔTm [12]: 19.8 ± 0.4 °C | ΔTm FMycT ([6]; ligand 10 μM, 1 mM KCl): 8.6 ± 0.9 °C | binding affinity (equilibrium binding constant) (mt6363 G4): higher affinity for the mt6363 G4 structure compared with the other G4 sequences | IC50 [15]: 0.019 ± 0.0053 nM | ΔTm F21T Na+ ([8]; ligand 10 μM, 100 mM NaCl): 9.1 ± 0.3 °C | IC50 (HeLa cells): 9280 ± 770 nM | IC50 (HT-29 cells): 6560 ± 490 nM | IC50 ([20]; THP-1, intracellular amastigotes): 0.48 nM | IC50 ([20]; intracellular amastigotes in THP-1 macrophages, 72 h, luciferase): 0.484 ± 0.617 nM | IC50 (THP-1 cells): 480 ± 110 nM | ΔTm Fmt6363T ([9]; ligand 10 μM, 10 mM KCl): 19.8 °C

Source: article PMC12643529 (ACS Infectious Diseases, 2025)
